Experiments:
Format in all cases: in vivo
[1] = test system: ORYZA SATIVA, L. TEBONNET; test: Preemergence herbicidal evaluation, ORYSAT (Rice, Tebonnet); conditions: for ORYSAT herbicidal rating: rated four to five weeks after treatment
How it was run: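 Seeds of rice (Oryza sativa, Tebonnet) were mixed with potting soil and sown on about one inch of soil in pint cups, then treated preemergence. Cups sat on greenhouse benches, watered and tended by standard greenhouse practice. Four to five weeks after treatment, plants were visually scored on a 0-9 scale relative to a control.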

GALIUM APARINE = test: Preemergence herbicidal evaluation, GALAP (Galium); conditions: for GALAP herbicidal rating: rated four to five weeks after treatment
How it was run: (§1)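 Greenhouse preemergence test; treated soil cups received compound in aqueous acetone (about 0.125 to 0.50 kg/ha) right after sowing and were assessed visually 4-5 weeks later on a 0-9 scale compared with control plants.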

SAGITTARIA PYGMAEA, L. = test: Preemergence weed control under flooded paddy conditions, SAGPY (Arrowhead (Pygmaea)); conditions: for Herbicidal effect rating, SAGPY: preemergence, 3-4 weeks after treatment; for SAGPY: pre-weed
How it was run: (§2)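 Seeds or propagules were planted 0.5 cm deep in silt loam, with flood water held at 1.5 to 3 cm. Compound in 50/50 aqueous/acetone was pipetted into the flood water at about 0.5, 0.25, 0.125 and 0.063 kg/ha. Injury was rated visually on a 0-9 scale against a control 3-4 weeks after treatment.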

[2] = test system: CYPERUS SEROTINUS, ROTTB.; test: Preemergence weed control under flooded paddy conditions, CYPSE (Flatsedge); conditions: for Herbicidal effect rating, CYPSE: preemergence, 3-4 weeks after treatment; for CYPSE: pre-weed
How it was run: as §2

ZEA MAYS L. = test: Preemergence herbicidal evaluation, ZEAMX (Corn, Field); conditions: for ZEAMX herbicidal rating: rated four to five weeks after treatment
How it was run: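 Corn (Zea mays) seeds were mixed with potting soil and planted on about one inch of soil in pint cups, then treated preemergence. Cups were kept on greenhouse benches, watered and maintained conventionally, and after four to five weeks were visually rated on a 0-9 scale versus an untreated control.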

[…], PRESL. = Preemergence weed control under flooded paddy conditions, MOOVA (Monochoria); conditions: for Herbicidal effect rating, MOOVA: preemergence, 3-4 weeks after treatment; for MOOVA: pre-weed
How it was run: as §2

[3] = test system: ECHINOCHLOA ORYZOIDES (ARD.)FRITSCH; test: Preemergence weed control under flooded paddy conditions, ECHORC (Watergrass (Calif.)); conditions: for Herbicidal effect rating, ECHORC: preemergence, 3-4 weeks after treatment; for ECHORC: pre-weed
How it was run: as §2

[4] = test system: GLYCINE MAX(L) MERR. CV. WILLIAMS; test: Postemergence herbicidal evaluation, GLXMAW (Soybean, Williams); set-up: key to GLXMAW rating / Herbicidal effect rating, GLXMAW / GLXMAW: 0-9 visual rating scale vs untreated control
How it was run: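 Soybean seedlings (Williams) were raised in jiffy flats for roughly two weeks, then sprayed postemergence through a nozzle at 40 psi with test compound dispersed in 50/50 acetone/water containing 0.5% TWEEN®20. Treated plants were kept on greenhouse benches under normal care and visually rated on a 0-9 scale four to five weeks later.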

[5] = test system: GLYCINE MAX(L) MERR. CV. WILLIAMS; test: Preemergence herbicidal evaluation, GLXMAW (Soybean, Williams); conditions: for GLXMAW herbicidal rating: rated four to five weeks after treatment
How it was run: as §1

CASSIA OBTUSIFOLIA, L. = test: Preemergence herbicidal evaluation, CASOB (Sicklepod); conditions: for CASOB herbicidal rating: rated four to five weeks after treatment
How it was run: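 Seeds of various monocot and dicot plants, including sicklepod, were each mixed with potting soil and sown on roughly one inch of soil in separate pint cups for preemergence testing. Treated cups were kept on greenhouse benches, watered and maintained conventionally. Four to five weeks after treatment, each cup was visually rated on a 0-9 scale against a control.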

CHENOPODIUM ALBUM, L. = test: Postemergence herbicidal evaluation, CHEAL (Lambsquarters, Common)
How it was run: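 Seedlings of common lambsquarters (Chenopodium album) were raised in jiffy flats for roughly two weeks, then sprayed postemergence through a nozzle at 40 psi with test compound dispersed in 50/50 acetone/water containing 0.5% TWEEN®20 surfactant. Plants were kept on greenhouse benches under standard care and rated visually on a 0-9 scale versus controls.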

CYPERUS IRIA = test: Preemergence weed control under flooded paddy conditions, CYPIR (Rice Flatsedge); conditions: for Herbicidal effect rating, CYPIR: preemergence, 3-4 weeks after treatment; for CYPIR: pre-weed
How it was run: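 Seeds or propagating organs of rice flatsedge were planted in the top 0.5 cm of silt loam soil in 32 oz. plastic containers, 10.5 cm across and without drainage holes. Water was kept 1.5 to 3 cm above the soil throughout. Treated containers were kept on greenhouse benches, and herbicidal effect was visually rated on a 0-9 scale against a control.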

[6] = test system: ORYZA SATIVA, L. TEBONNET; test: Postemergence herbicidal evaluation, ORYSAT (Rice, Tebonnet); set-up: key: 0-9 visual rating scale vs untreated control
How it was run: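 Rice (Tebonnet) seedlings raised in jiffy flats for roughly two weeks were sprayed postemergence at 40 psi with compound dispersed in 50/50 acetone/water containing 0.5% TWEEN®20. The plants were then kept on greenhouse benches under standard care and visually scored on a 0-9 scale against a control four to five weeks after treatment.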

Methyl 3-{2-[(2-chloro-α,α,α,-trifluoro-p-tolyl)oxy]phenyl}tetrahydro-5-methyl-2,4,6-trioxo-s-triazine-1(2H)-acetate [Compound 28]
ORYSAT ([1]; Rate 0.125 kg/ha): 1.0
ORYSAT herbicidal rating ([1]; Rate 0.125 kg/ha): 1.0
ORYSAT ([1]; Rate 0.250 kg/ha): 2.0
ORYSAT herbicidal rating ([1]; Rate 0.250 kg/ha): 2.0
ORYSAT ([1]; Rate 0.500 kg/ha): 4.0
ORYSAT herbicidal rating ([1]; Rate 0.500 kg/ha): 4.0
ORYSAT ([1]; Rate 1.000 kg/ha): 4.0
GALAP (GALIUM APARINE; Rate 0.125 kg/ha): 3.0
GALAP herbicidal rating (GALIUM APARINE; Rate 0.125 kg/ha): 3.0
GALAP (GALIUM APARINE; Rate 0.250 kg/ha): 4.0
GALAP herbicidal rating (GALIUM APARINE; Rate 0.250 kg/ha): 4.0
GALAP (GALIUM APARINE; Rate 0.500 kg/ha): 5.5
GALAP herbicidal rating (GALIUM APARINE; Rate 0.500 kg/ha): 6.0
GALAP (GALIUM APARINE; Rate 1.000 kg/ha): 5.0
Herbicidal effect rating, SAGPY (SAGITTARIA PYGMAEA, L.; 0.063 kg/ha): 0.0
Herbicidal effect rating, SAGPY (SAGITTARIA PYGMAEA, L.; 0.125 kg/ha): 0.0
Herbicidal effect rating, SAGPY (SAGITTARIA PYGMAEA, L.; 0.250 kg/ha): 0.0
Herbicidal effect rating, SAGPY (SAGITTARIA PYGMAEA, L.; 0.500 kg/ha): 0.0
SAGPY (SAGITTARIA PYGMAEA, L.; Rate 0.250 kg/ha): 0.0
SAGPY (SAGITTARIA PYGMAEA, L.; Rate 0.500 kg/ha): 0.0
SAGPY (SAGITTARIA PYGMAEA, L.; Rate 1.000 kg/ha): 0.0
Herbicidal effect rating, CYPSE ([2]; 0.063 kg/ha): 0.0
Herbicidal effect rating, CYPSE ([2]; 0.125 kg/ha): 0.0
Herbicidal effect rating, CYPSE ([2]; 0.250 kg/ha): 0.0
Herbicidal effect rating, CYPSE ([2]; 0.500 kg/ha): 0.0
CYPSE ([2]; Rate 0.250 kg/ha): 0.0
CYPSE ([2]; Rate 0.500 kg/ha): 0.0
CYPSE ([2]; Rate 1.000 kg/ha): 0.0
ZEAMX (ZEA MAYS L.; Rate 0.125 kg/ha): 0.0
ZEAMX herbicidal rating (ZEA MAYS L.; Rate 0.125 kg/ha): 0.0
ZEAMX (ZEA MAYS L.; Rate 0.250 kg/ha): 0.0
ZEAMX herbicidal rating (ZEA MAYS L.; Rate 0.250 kg/ha): 0.0
ZEAMX (ZEA MAYS L.; Rate 0.500 kg/ha): 1.0
ZEAMX herbicidal rating (ZEA MAYS L.; Rate 0.500 kg/ha): 1.0
ZEAMX (ZEA MAYS L.; Rate 1.000 kg/ha): 1.0
Herbicidal effect rating, MOOVA ([…], PRESL.; 0.063 kg/ha): 0.0
Herbicidal effect rating, MOOVA ([…], PRESL.; 0.125 kg/ha): 0.0
Herbicidal effect rating, MOOVA ([…], PRESL.; 0.250 kg/ha): 2.0
Herbicidal effect rating, MOOVA ([…], PRESL.; 0.500 kg/ha): 9.0
MOOVA ([…], PRESL.; Rate 0.250 kg/ha): 2.0
MOOVA ([…], PRESL.; Rate 0.500 kg/ha): 9.0
MOOVA ([…], PRESL.; Rate 1.000 kg/ha): 9.0
Herbicidal effect rating, ECHORC ([3]; 0.063 kg/ha): 0.0
Herbicidal effect rating, ECHORC ([3]; 0.125 kg/ha): 0.0
Herbicidal effect rating, ECHORC ([3]; 0.250 kg/ha): 2.0
Herbicidal effect rating, ECHORC ([3]; 0.500 kg/ha): 8.0
ECHORC ([3]; Rate 0.250 kg/ha): 2.0
ECHORC ([3]; Rate 0.500 kg/ha): 8.5
ECHORC ([3]; Rate 1.000 kg/ha): 7.0
GLXMAW ([4]; Rate 0.063 kg/ha): 2.5
GLXMAW ([4]; Rate 0.125 kg/ha): 3.5
GLXMAW rating ([4]; Rate 0.125 kg/ha): 3.5
GLXMAW ([4]; Rate 0.250 kg/ha): 4.5
GLXMAW rating ([4]; Rate 0.250 kg/ha): 4.5
GLXMAW ([4]; Rate 0.500 kg/ha): 5.0
GLXMAW rating ([4]; Rate 0.500 kg/ha): 5.0
GLXMAW ([5]; Rate 0.125 kg/ha): 0.0
GLXMAW herbicidal rating ([5]; Rate 0.125 kg/ha): 0.0
GLXMAW ([5]; Rate 0.250 kg/ha): 1.0
GLXMAW herbicidal rating ([5]; Rate 0.250 kg/ha): 1.0
GLXMAW ([5]; Rate 1.000 kg/ha): 0.0
CASOB (CASSIA OBTUSIFOLIA, L.; Rate 0.125 kg/ha): 0.0
CASOB herbicidal rating (CASSIA OBTUSIFOLIA, L.; Rate 0.125 kg/ha): 0.0
CASOB (CASSIA OBTUSIFOLIA, L.; Rate 0.250 kg/ha): 2.0
CASOB herbicidal rating (CASSIA OBTUSIFOLIA, L.; Rate 0.250 kg/ha): 2.0
CASOB (CASSIA OBTUSIFOLIA, L.; Rate 0.500 kg/ha): 1.5
CASOB herbicidal rating (CASSIA OBTUSIFOLIA, L.; Rate 0.500 kg/ha): 3.0
CASOB (CASSIA OBTUSIFOLIA, L.; Rate 1.000 kg/ha): 3.0
CHEAL (CHENOPODIUM ALBUM, L.; Rate 0.063 kg/ha): 6.0
CHEAL (CHENOPODIUM ALBUM, L.; Rate 0.125 kg/ha): 6.0
CHEAL rating (CHENOPODIUM ALBUM, L.; Rate 0.125 kg/ha): 6.0
CHEAL (CHENOPODIUM ALBUM, L.; Rate 0.250 kg/ha): 8.0
CHEAL rating (CHENOPODIUM ALBUM, L.; Rate 0.250 kg/ha): 8.0
CHEAL (CHENOPODIUM ALBUM, L.; Rate 0.500 kg/ha): 9.0
CHEAL rating (CHENOPODIUM ALBUM, L.; Rate 0.500 kg/ha): 9.0
Herbicidal effect rating, CYPIR (CYPERUS IRIA; 0.063 kg/ha): 0.0
Herbicidal effect rating, CYPIR (CYPERUS IRIA; 0.125 kg/ha): 0.0
Herbicidal effect rating, CYPIR (CYPERUS IRIA; 0.250 kg/ha): 0.0
Herbicidal effect rating, CYPIR (CYPERUS IRIA; 0.500 kg/ha): 4.0
CYPIR (CYPERUS IRIA; Rate 0.250 kg/ha): 0.0
CYPIR (CYPERUS IRIA; Rate 0.500 kg/ha): 6.5
CYPIR (CYPERUS IRIA; Rate 1.000 kg/ha): 7.0
ORYSAT ([6]; Rate 0.063 kg/ha): 1.5
ORYSAT ([6]; Rate 0.125 kg/ha): 2.0
ORYSAT rating ([6]; Rate 0.125 kg/ha): 2.0
ORYSAT ([6]; Rate 0.250 kg/ha): 2.5
ORYSAT rating ([6]; Rate 0.250 kg/ha): 2.5
ORYSAT ([6]; Rate 0.500 kg/ha): 3.0
ORYSAT rating ([6]; Rate 0.500 kg/ha): 3.0

From patent EP0745595A1, “3-(3-Aryloxyphenyl)-1-(substituted methyl)-s-triazine-2,4,6-oxo or thiotrione herbicidal agents” (American Cyanamid Company, priority 1995, dated 1996)
